Test results reported in the CheMixHub ionic liquid set.

Experiment: xn = mol fraction of the nth substance listed

CC[n+]1ccn(C)c1.O=S(=O)([O-])C(F)(F)F + CC1COC(=O)O1
101 kPa
Conditions	viscosity [mPa·s]
288.15 K, x1 = 0.3005	10.78
288.15 K, x1 = 0.3998	14.62
288.15 K, x1 = 0.5001	18.7
293.15 K, x1 = 0.0999	5.28
293.15 K, x1 = 0.8004	32.5
298.15 K, x1 = 0.8004	27.2
298.15 K, x1 = 0.8998	32.5
298.15 K, x1 = 1	40.4
303.15 K, x1 = 0.0999	3.91
303.15 K, x1 = 0.3998	8.9
303.15 K, x1 = 0.6987	18.4
303.15 K, x1 = 1	34
308.15 K, x1 = 0.5001	9.9
313.15 K, x1 = 0.8998	20.4
313.15 K, x1 = 1	24.9
318.15 K, x1 = 0.1999	3.52
318.15 K, x1 = 0.3005	4.44
318.15 K, x1 = 0.3998	5.86
318.15 K, x1 = 0.5001	7.69
318.15 K, x1 = 0.8998	17.7
323.15 K, x1 = 0.6987	10.72
323.15 K, x1 = 0.8998	15.47
328.15 K, x1 = 0.1999	2.81
328.15 K, x1 = 0.3005	3.48
328.15 K, x1 = 0.3998	4.58
328.15 K, x1 = 0.5001	6.16
328.15 K, x1 = 0.601	7.77
333.15 K, x1 = 0.3005	3.14
333.15 K, x1 = 0.6987	8.51
333.15 K, x1 = 0.8004	10.43
338.15 K, x1 = 0.601	6.33
338.15 K, x1 = 0.8004	9.21
343.15 K, x1 = 0.0999	1.74
343.15 K, x1 = 0.3998	3.35
353.15 K, x1 = 0.3005	2.29
353.15 K, x1 = 0.8998	8.38
353.15 K, x1 = 1	9.49

CC[N+](CC)(CC)CC.O=S(=O)([O-])C(F)(F)F + CC#N
100 kPa
Conditions	electrical conductivity [S/m]
293.15 K, x1 = 0.02	2.56
293.15 K, x1 = 0.05	4.03
298.15 K, x1 = 0.0997	4.87
308.15 K, x1 = 0.1498	4.75
318.15 K, x1 = 0.05	4.94
318.15 K, x1 = 0.2995	3.89
323.15 K, x1 = 0.2995	4.16
333.15 K, x1 = 0.2	5.43
333.15 K, x1 = 0.25	4.96
333.15 K, x1 = 0.2995	4.73
348.15 K, x1 = 0.02	3.67
348.15 K, x1 = 0.08	6.89
348.15 K, x1 = 0.1498	6.97

CC[n+]1ccn(C)c1.O=S(=O)([O-])C(F)(F)F + CC#N
viscosity [mPa·s], 100 kPa
Conditions	298.15 K	303.15 K	308.15 K	313.15 K	318.15 K	323.15 K
x1 = 0.3948	4.5	4.1	3.8	3.5	–	–
x1 = 0.498	7.4	6.6	6	5.4	4.9	4.4
x1 = 0.595	–	9.5	8.4	7.5	6.7	6
x1 = 0.6936	–	–	–	–	9.5	8.3
x1 = 0.9005	34	–	–	–	–	–
x1 = 1	46	38	–	–	–	–

CCc1n(S(=O)(=O)O)cc[n+]1S(=O)(=O)O.O=C([O-])C(F)(F)F + CC#N
101 kPa
Conditions	electrical conductivity [S/m]
278.15 K, x1 = 0.02551	1.22
283.15 K, x1 = 0.02551	1.21
288.15 K, x1 = 0.02551	1.2
293.15 K, x1 = 0.02551	1.11
298.15 K, x1 = 0.0052	0.323
298.15 K, x1 = 0.0104	0.517
298.15 K, x1 = 0.0155	0.736
298.15 K, x1 = 0.0205	0.989
298.15 K, x1 = 0.0255	1.11
298.15 K, x1 = 0.02551	1.11
303.15 K, x1 = 0.02551	0.823
308.15 K, x1 = 0.02551	0.824
313.15 K, x1 = 0.02551	0.816
318.15 K, x1 = 0.02551	0.767
323.15 K, x1 = 0.02551	0.755
328.15 K, x1 = 0.02551	0.689
333.15 K, x1 = 0.02551	0.652

C[n+]1ccn(CCCC#N)c1.F[B-](F)(F)F + CC#N
100 kPa
Conditions	electrical conductivity [S/m]
288.15 K, x1 = 0.5996	0.36
293.15 K, x1 = 0.4999	0.69
293.15 K, x1 = 0.5996	0.47
303.15 K, x1 = 0.4999	1
303.15 K, x1 = 0.8885	0.31
308.15 K, x1 = 0.7001	0.72
323.15 K, x1 = 0.8024	0.87

Cc1n(S(=O)(=O)O)cc[n+]1S(=O)(=O)O.O=C([O-])C(F)(F)F + CC#N
101 kPa
Conditions	electrical conductivity [S/m]
278.15 K, x1 = 0.02551	1.39
283.15 K, x1 = 0.02551	1.36
288.15 K, x1 = 0.02551	1.3
293.15 K, x1 = 0.02551	1.29
298.15 K, x1 = 0.0052	0.351
298.15 K, x1 = 0.0104	0.528
298.15 K, x1 = 0.0155	0.698
298.15 K, x1 = 0.0205	1.04
298.15 K, x1 = 0.0255	1.26
298.15 K, x1 = 0.02551	1.26
303.15 K, x1 = 0.02551	1.2
308.15 K, x1 = 0.02551	1.15
313.15 K, x1 = 0.02551	1.1
318.15 K, x1 = 0.02551	1.09
323.15 K, x1 = 0.02551	1.08
328.15 K, x1 = 0.02551	0.706
333.15 K, x1 = 0.02551	0.616

O=C([O-])C(F)(F)F.O=S(=O)(O)n1cc[n+](S(=O)(=O)O)c1 + CC#N
101 kPa
Conditions	electrical conductivity [S/m]
278.15 K, x1 = 0.02551	1.83
283.15 K, x1 = 0.02551	1.78
288.15 K, x1 = 0.02551	1.62
293.15 K, x1 = 0.02551	1.59
298.15 K, x1 = 0.0052	0.305
298.15 K, x1 = 0.0104	0.52
298.15 K, x1 = 0.0155	0.949
298.15 K, x1 = 0.0205	1.15
298.15 K, x1 = 0.0255	1.54
298.15 K, x1 = 0.02551	1.54
298.15 K, x1 = 0.05	2.02
303.15 K, x1 = 0.02551	1.27
308.15 K, x1 = 0.02551	1.25
313.15 K, x1 = 0.02551	1.25
318.15 K, x1 = 0.02551	1.25
323.15 K, x1 = 0.02551	0.803
328.15 K, x1 = 0.02551	0.486
333.15 K, x1 = 0.02551	0.401

O=c1cc[nH]c(=O)[nH]1 + CC(=O)[O-].CC[n+]1ccn(C)c1
Conditions	viscosity [mPa·s]
298.15 K, 100 kPa, x1 = 0.233	773

CC[n+]1ccn(C)c1.O=S(=O)([O-])C(F)(F)F + CCC(C)O
101 kPa
Conditions	viscosity [mPa·s]
298.15 K, x1 = 0.7986	30.77
298.15 K, x1 = 1	45.67
303.15 K, x1 = 0.3938	6.96
303.15 K, x1 = 0.4988	9.31
303.15 K, x1 = 0.5952	13.31
303.15 K, x1 = 0.7986	26.05
308.15 K, x1 = 0.3938	6.16
308.15 K, x1 = 0.903	28.15
313.15 K, x1 = 0.1945	3.63
313.15 K, x1 = 0.4988	7.33
313.15 K, x1 = 0.5952	10.28
313.15 K, x1 = 0.6907	14.61
313.15 K, x1 = 1	27.68
318.15 K, x1 = 0.4988	6.57
318.15 K, x1 = 0.903	20.96
323.15 K, x1 = 0.6907	11.38
323.15 K, x1 = 0.903	18.3
